pEC50: −log10 of the molar value.
Molecular target: T1, human kappa opioid receptors (Homo sapiens, UniProt P41145)
T1 construct: expressed in transfected cells; host or cells: U2OS
Test: [35S]GTPγS stimulation, membranes from U2OS cells
Format: biochemical
Settings: for Emax: read-out: GTPγS stimulation % efficacy

T1 sequence (P41145 whole entry): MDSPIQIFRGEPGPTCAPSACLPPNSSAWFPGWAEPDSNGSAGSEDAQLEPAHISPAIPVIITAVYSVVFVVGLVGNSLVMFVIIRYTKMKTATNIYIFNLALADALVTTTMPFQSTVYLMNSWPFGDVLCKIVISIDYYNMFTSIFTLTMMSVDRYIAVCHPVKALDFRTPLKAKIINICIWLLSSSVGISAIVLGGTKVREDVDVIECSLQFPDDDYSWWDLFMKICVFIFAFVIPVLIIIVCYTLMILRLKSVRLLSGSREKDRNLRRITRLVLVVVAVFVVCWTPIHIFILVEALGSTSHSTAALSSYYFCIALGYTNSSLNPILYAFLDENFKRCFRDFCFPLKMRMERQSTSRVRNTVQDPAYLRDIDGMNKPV

Row | SMILES | pEC50 | Emax [%]
1 | O=C(Cc1ccc(Cl)c(Cl)c1)N1CCN[C@@H]2COC[C@H](N3CCCC3)[C@H]21 (racemic) [Example 5A22, 1-[8-pyrrolidin-1-yl-2,3,4,4a,5,7,8,8a-octahydropyrano(3,4-b)pyrazin-1-yl]-2-(3,4-dichlorophenyl)ethanone] | 7.20 | 96
2 | CN1CCN(C(=O)Cc2ccc(Cl)c(Cl)c2)[C@H]2[C@H]1COC[C@@H]2N1CCCC1 (racemic) [Example 5A23, 1-[4-methyl-8-pyrrolidin-1-yl-3,4a,5,7,8,8a-hexahydro-2H- -pyrano(3,4-b)pyrazin-1-yl]-2-(3,4-dichlorophenyl)ethanone] | 7.34 | 76

Reference: patent US11091497B2, “Pyrano[3,4-b]pyrazine kappa opioid receptor ligands for treating addiction, pruritus, pain, and inflammation” (The Rockefeller University, priority 2017, dated 2021)
